Values after ≈ are worked out from the molar mass of the structure shown.
Assays:
Format in all cases: functional
Bacillus subtilis = test: Antibacterial activity against Bacillus subtilis KCTC 1021 after 24 hrs by broth microdilution method; settings: KCTC 1021, 24 h
Escherichia coli = test: Antibacterial activity against Escherichia coli KCTC 1923 after 24 hrs by broth microdilution method; settings: KCTC 1923, 24 h
Saccharomyces cerevisiae = test: Antifungal activity against Saccharomyces cerevisiae KCTC 7913 after 48 hrs by broth microdilution method; settings: KCTC 7913, 48 h

| SMILES | MIC (Bacillus subtilis) | MIC (Escherichia coli) | MIC (Saccharomyces cerevisiae) |
| --- | --- | --- | --- |
| C[C@@H]1CCC/C=C/[C@@H]2O[C@H](C[C@@H](O)C/C=C\C=C\[C@@H](O)C/C=C/C=C\C(=O)O1)[C@H]2O | 0.16 µM (≈ 0.067 µg/mL) | 0.16 µM (≈ 0.067 µg/mL) | 0.16 µM (≈ 0.067 µg/mL) |
| C[C@@H]1CCC[C@@H]2O[C@H]2/C=C/[C@H](O)C[C@@H](O)C/C=C\C=C\[C@@H](O)C/C=C/C=C\C(=O)O1 | 0.16 µM (≈ 0.067 µg/mL) | 0.16 µM (≈ 0.067 µg/mL) | 0.02 µM (≈ 0.00837 µg/mL) |
| C[C@@H]1CCC/C=C/[C@@H]2O[C@@H](C/C=C\C=C\[C@@H](O)C/C=C/C=C\C(=O)O1)C[C@@H](O)[C@H]2O | 0.16 µM (≈ 0.067 µg/mL) | 0.16 µM (≈ 0.067 µg/mL) | 0.16 µM (≈ 0.067 µg/mL) |

Reference: ChEMBL document CHEMBL1926581, “Cyclic ether-containing macrolactins, antimicrobial 24-membered isomeric macrolactones from a marine Bacillus sp” (2011)
